Patent US20070207120A1, “Selective Killing Of Cancer Cells By Induction Of Acetyltransferase Via Tnf-Alpha And Il-6” (priority 2004, published 2007)

How the values were obtained:
Assay type in all cases: cell-based, human
normal WI38 cells = assay: Cytokine and deacetylase inhibitor treatment, normal cells; settings: for effect on / killing of normal WI38 cells: TSA, CBHA 2.5 μg/ml; for cell death in normal cells: in combination with cytokine treatment (TSA 400 nM; SAHA 5 μg/ml)
Description: (§1) Human cells WI38 (ATCC number CCL-75), WI38 VA13 (ECACC number 85062512), SaOS2 (ECACC number 89050205), U20S (ATCC number HTB-96), HeLa (CCL-2), HEK 293 (ATCC number CRL-1573) and Hs68 (ATCC number CRL-1635) were obtained from ATCC, ECACC or CR-UK cell services. All cells were cultured as monolayers in 10% foetal bovine serum in Dulbecco's minimal essential medium at 37° C. in 5% CO2, except SaOS2 cells which were cultured in McCoy's 5a medium supplemented with 1.5 mM L-glutamine and 15% foetal bovine serum. VA13 cells are WI38 primary fibroblasts transformed with SV40 virus and therefore share the same genetic background. To measure cell viability and total cell number, cells in suspension and adherent cells were collated and analysed by resuspending with a known concentration of CaliBRITE unlabelled beads (Becton Dickinson) plus propidium iodide and counting the number of live and dead cells per 3000 beads using a FACSCalibur flow cytometer (Becton Dickinson). Alternatively, an automated trypan blue assay using a Vi-Cell XR Cell Viability Analyzer (Beckman Coulter) was employed. Cells were treated with Interleukin 6 (20 ng/ml) for 24 hours, followed by addition of antibody 80M2 (1 μg/ml), which modulates TNFα receptor 2, and TNFα (10 ng/ml). TNFα was added to the cell culture medium 30 minutes after addition of 80M2. […] All agents were added to the cell culture medium in liquid form. […] For cytokine treatment in combination with deacetylase inhibitors, cells were harvested and counted 48 hours after addition of deacetylase inhibitor.

[1] = system: transformed WI38 VA13 cells; assay: Cytokine and deacetylase inhibitor treatment, transformed cells; settings: for efficacy in (selective) cell killing of transformed cells: alone and in combination with cytokine treatment, butyric acid 5 mM, TSA, CBHA 2.5 μg/ml, SAHA 5 μg/ml
Description: as §1

MCM3AP = assay: Western blot of MCM3AP expression after cytokine treatment; settings: HEK 293 cells; IL6 20 ng/ml, 24 hours later TNFα 10 ng/ml and 80M2 1 μg/ml; following three days
Description: HEK 293 cells (ATCC number CRL-1573) and Hs68 cells (ATCC number CRL-1635) were cultured as monolayers in 10% foetal calf serum in Dulbecco's minimal essential medium at 37° C. in 10% or 5% CO2 respectively, according to recommendations by the American Tissue Culture Collection. Stable cell lines of HEK 293 cells expressing inducible wild-type or mutant MCM3AP were made by stable transfection of vectors previously described by Takei et al. (2,3). Expression of MCM3AP was induced in these stable cell lines by treatment with doxycycline.
Exponentially growing cells were harvested and fractionated into soluble and structure-bound fractions. Cells were harvested by scraping adherent cells, pelleted by centrifugation at 200 g for 4 minutes and washed in cold PBS. The cell pellet was resuspended in cold hypotonic buffer (10 mM HEPES-KOH pH 7.3, 5 mM KCl, 1.5 mM MgCl2, 1 mM DTT, 1% NP40 and protease inhibitors) and incubated on ice for 15 minutes. Cells were centrifuged at 10,000 rpm for 5 minutes and the supernatant stored at −80° C. as the soluble protein fraction. […]
Samples were separated by 7.5% SDS-PAGE and transferred to PVDF membrane at a constant voltage of 10V for 1 hour. […] The bound antibodies were detected with peroxidase-conjugated secondary antibody (Amersham Biosciences) and protein bands visualised by the […] method using ECL or ECLplus (Amersham Biosciences). […]

HEK 293 cells = assay: Apoptosis (annexin V) and attached cell number after cytokine treatment; settings: HEK 293 attached cells; 24 hours after addition of TNFα and 80M2
Description: Cells were treated with Interleukin 6 (20 ng/ml) for 24 hours, followed by addition of antibody 80M2 (1 μg/ml), which modulates TNFα receptor 2, and TNFα (10 ng/ml). TNFα was added to the cell culture medium 30 minutes after addition of 80M2. All agents were added to the cell culture medium in liquid form. Cells were harvested after the indicated number of days of treatment, where ‘time zero’ corresponds to the point of addition of Interleukin 6.
Cells were assayed for apoptosis by Annexin V staining (Oncogene, Annexin V-FITC or Annexin V-Biotin apoptosis detection kit) and TUNEL assay (BD Biosciences, ApoAlert DNA fragmentation assay kit). Cells were assayed for Annexin V and TUNEL assay by flow cytometry, according to manufacturer's instructions. Attached cells were harvested and counted using a haemocytometer to give total attached cell number.
We examined the cell fate outcome of upregulating MCM3AP by cytokine treatment in HEK 293 cells. Treatment of HEK 293 cells with the same combination of cytokines that upregulates MCM3AP induces cell death by apoptosis (FIG. 4). Cells were treated with IL6 for 24 hours, followed by addition of TNFα and antibody 80M2. Attached cells were assayed for apoptosis and total cell number 24 hours and 36 hours later respectively.

Compound	effect on / killing of normal WI38 cells (normal WI38 cells)	cell death in normal cells (normal WI38 cells)	efficacy in (selective) cell killing of transformed cells [1]	MCM3AP protein expression (western blot) (MCM3AP)	other results
O=C(/C=C/c1cccc(C(=O)NO)c1)NO [CBHA, cinnamic acid bishydroxamic acid]	did not kill primary WI38 cells above background levels	–	–	–	–
O=C(CCCCCCC(=O)Nc1ccccc1)NO [SAHA, suberoylanilide hydroxamic acid]	–	~40%	–	–	–
CC(/C=C/C(=O)NO)=C\[C@@H](C)C(=O)c1ccc(N(C)C)cc1 [TSA, trichostatin A]	minimal effect	~20%	efficient in selectively killing transformed cells	–	live cell number over time (normal WI38 cells; 400 nM TSA in combination with cytokine treatment, compare with t=0 value): reduction in live cell number; effect of TSA at lower concentrations ([1]; 100 nM, 200 nM, 400 nM TSA): concentration dependent; transformed cells killed ([1]; three days of cytokine treatment in combination with deacetylase inhibitor (TSA 400 nM; CBHA 2.5 μg/ml; SAHA 5 μg/ml)): 80-90%
CCCC(=O)O [butyric acid]	–	–	least effective	–	–
IL6: cytokine interleukin-6	–	–	–	does not stimulate MCM3AP significantly	–
TNFα	–	–	–	does not stimulate MCM3AP significantly	apoptosis (annexin-V staining) (HEK 293 cells): markedly reduced
